Results from patent US8841073B2, “Methods for identifying RNA segments bound by RNA-binding proteins or ribonucleoprotein complexes” (The Rockefeller University, priority 2008, dated 2014).
Blank lines part the entries; values can stand above or below the compound they belong to. [4sU] = 4-thiouridine

Experiments:
cells = details: exposure longer than 24 hrs in culture medium; cited from earlier work
recombinant QKI protein = target: T1, recombinant QKI protein (Homo sapiens, UniProt Q96PU8); assay: UV 365 nm crosslinking of synthetic 4SU-containing oligoribonucleotides to recombinant QKI; assay type: biochemical; details: 4SU at position 2 vs position 3 of the recognition element
T1 construct: His6 (N); made in house; host or cells: E. coli STAR(DE3)
T1 sequence (Q96PU8 1-319 isoform Q96PU8-9): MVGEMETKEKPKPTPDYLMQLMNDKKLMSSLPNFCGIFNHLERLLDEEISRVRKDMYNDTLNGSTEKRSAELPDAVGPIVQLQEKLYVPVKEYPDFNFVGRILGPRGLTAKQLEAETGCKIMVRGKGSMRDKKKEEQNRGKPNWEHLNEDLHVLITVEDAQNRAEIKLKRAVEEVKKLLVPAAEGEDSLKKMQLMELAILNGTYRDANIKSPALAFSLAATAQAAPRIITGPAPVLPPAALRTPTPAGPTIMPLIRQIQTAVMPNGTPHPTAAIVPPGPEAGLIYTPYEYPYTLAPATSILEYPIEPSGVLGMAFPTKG
Description: FIG. 3. RNA recognition sites of QKI protein. A Domain structure of QKI protein. B Phosphorimage of SDS polyacrylamide gel resolving radiolabeled RNA crosslinked to FLAG/HA-QKI IPs from non-irradiated or UV-irradiated 4SU-labeled cells. […] C Two alignments of PURE-CLIP cDNA sequence reads to the corresponding regions of the 3′UTRs of the Refseq CTNNB1 and HOXD13 transcripts, respectively. Red bars indicate the QKI recognition motif and red-letter nucleotides indicate T to C sequence changes. D Weblogo of the QKI recognition motif generated by PhyloGibbs analysis of the top 100 sequence read clusters. […] F Sequences of synthetic 4SU-labeled oligoribonucleotides with QKI recognition motifs, derived from a sequence read cluster aligning to the 3′UTR of HOXD13 (see c). […]
To better understand the […] sequence conversion after sequencing of crosslinked RNA segments, we subjected synthetic 4SU-containing oligoribonucleotides together with recombinant QKI to UV 365 nm crosslinking (FIGS. 3F, G). […] RNA-binding to recombinant QKI protein was unaffected by 4SU incorporation at U9 or U10 as determined by gel-shift analysis (FIG. 11A-B), whereas regular mutation of the recognition element weakened the binding (FIG. 11C). […]

[1] = target: T2, recombinant His6-QKI protein (Homo sapiens, UniProt Q96PU8); assay: Electrophoretic mobility shift assay (gel-shift) with recombinant QKI; assay type: binding
T2 construct: His6 (N); made in house; host or cells: E. coli STAR(DE3)
T2 sequence (Q96PU8 1-319 isoform Q96PU8-9): T1 sequence (Q96PU8 1-319 isoform Q96PU8-9)
Description: FIG. 11: Electrophoretic mobility shift assay (EMSA) to analyze binding of recombinant QKI to synthetic oligoribonucleotides with a sequence derived from a cluster identified by QKI PURE-CLIP. […] C Mutation of either one of the QKI binding sites (marked with red bars in the RNA-sequence) results in decreased affinity of QKI to the RNA. Mutation of both binding sites leads to complete loss of affinity of QKI to the RNA.
Radiolabeled RNA (1 nM) was incubated with recombinant His6-QKI protein at various concentrations and 100 ng tRNA in 20 μl of 20 mM HEPES-KOH, pH 7.4, 330 mM KCl, 10 mM MgCl2, 0.1 mM EDTA and 0.01% IGEPAL CA630 (Sigma). After addition of 6 μl loading dye (40% glycerol, bromophenol blue in binding buffer), the solution was loaded onto a native 10% acrylamide gel containing 0.5×TBE, running at 200 V for 2 h at room temperature, using 0.5×TBE as running buffer. The protein-bound RNA and the free RNA were quantified using a phosphorimager.

[2] = target: T3, FLAG/HA-tagged RBP IGF2BP1 (Homo sapiens, UniProt Q9NZI8); assay: UV 365 nm crosslinking of RNA to FLAG/HA-IGF2BP1 in cells cultured with photoreactive nucleoside (IP, 32P-labeling, SDS gel phosphorimaging); assay type: cell-based; details: 100 μM photoreactive nucleoside, 365 nm UV
T3 construct: expressed in transfected cells; host or cells: Flp-In T-REx HEK293 (Invitrogen), pFRT/TO/FLAG/HA-DEST, doxycycline-induced
T3 sequence (Q9NZI8 whole entry): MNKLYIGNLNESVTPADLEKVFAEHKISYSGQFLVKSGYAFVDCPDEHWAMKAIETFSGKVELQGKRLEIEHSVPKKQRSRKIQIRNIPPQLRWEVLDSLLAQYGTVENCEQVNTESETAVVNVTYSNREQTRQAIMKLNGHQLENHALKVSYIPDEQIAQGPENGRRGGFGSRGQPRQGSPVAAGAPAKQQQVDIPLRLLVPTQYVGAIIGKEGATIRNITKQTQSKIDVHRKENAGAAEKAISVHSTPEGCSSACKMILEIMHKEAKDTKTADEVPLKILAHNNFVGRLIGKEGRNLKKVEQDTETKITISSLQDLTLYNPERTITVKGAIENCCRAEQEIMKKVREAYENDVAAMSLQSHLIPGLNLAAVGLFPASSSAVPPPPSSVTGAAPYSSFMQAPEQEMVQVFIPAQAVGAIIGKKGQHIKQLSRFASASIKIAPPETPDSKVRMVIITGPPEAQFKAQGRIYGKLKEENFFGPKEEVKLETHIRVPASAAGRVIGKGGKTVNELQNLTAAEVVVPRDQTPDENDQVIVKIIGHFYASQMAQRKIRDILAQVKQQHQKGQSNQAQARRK
Description: FIG. 1. PURE-CLIP methodology. A Structure of photoreactive nucleosides. B Incorporation of photoreactive nucleosides to enable UV 365 nm crosslinking of RNA to RNA-binding IGF2BP1 protein. Upper panels show phosphorimages of SDS protein gels resolving 5′-32P-labeled RNA-FLAG/HA-IGF2BP1 immunoprecipitates (IPs) prepared from lysates from cells that were cultured in media in the absence or presence of 100 μM photoreactive nucleoside for 12 hrs and crosslinked with 365 nm UV. For comparison, a sample prepared from cells crosslinked at 254 nm, was included. Lower panels show immunoblots probed with an anti-HA antibody confirming uniform gel loading. C Illustration of the method. […]
Incorporation of modified photoreactive nucleoside analogues into RNA facilitates UV crosslinking to RBPs (Meisenheimer and Koch, 1997), as shown previously for in vitro transcribed site-specifically labeled RNAs (Kirino and Mourelatos, 2008; Moore and Query, 1998). Several of these photoreactive nucleosides are excitable by longer wavelength UV (>300 nm) and are readily taken up by cells, where they are incorporated into nascent transcripts without noticeable toxicity and then can be used for in vivo crosslinking (Bezerra and Favre, 1990; Favre et al., 1986; Wagenmakers et al., 1980). […]

[3] = tested on: transcripts containing miR-7- or miR-124-specific CCRs; assay: miR-7 and miR-124 duplex transfection into HEK293 cells, mRNA stability by Affymetrix microarrays; assay type: cell-based, human; details: HEK293 cells stably expressing FLAG/HA-AGO2
Description: To allow for a comparison to such studies, we transfected miRNA duplexes corresponding to the deeply conserved miR-7 and miR-124 into HEK293 cells stably expressing FLAG/HA-AGO2 and performed PURE-CLIP. Before transfection, these miRNAs were only present in trace amounts in HEK293 cells, less than 0.2% of total miRNA abundance. We found 1,866 unique sequence read clusters in the miR-7 and 10,929 in the miR-124 transfection experiments. The CCRs isolated from miR-7 and miR-124 transfection experiments were enriched for the seed sequences of the transfected miRNA duplexes. These CCRs were predominantly exonic (87 and 88%, respectively), 28% mapped to the CDS, 57 and 59%, respectively, to the 3′UTR of mRNAs and only 3 and 2%, respectively, to the 5′UTR. miR-7 and miR-124 binding sites that were located in the CDS for miR-7 and -124 were also embedded in regions with unusual codon bias, similar to the binding sites of endogenous miRNA target sites (FIG. 31).
The change in mRNA stability was analyzed after miRNA duplex transfection by Affymetrix whole genome microarrays (Hausser et al., submitted). We observed that transcripts containing miR-7- or miR-124-specific CCRs were destabilized upon miRNA delivery, especially for transcripts with CCRs located in the 3′UTR (FIG. 32-33). […]

Compound: Nc1nc2c(ncn2[C@@H]2O[C@H](CO)[C@@H](O)[C@H]2O)c(=S)[nH]1 [6SG, 6-thioguanosine]
concentration above which cytotoxicity is noticeable (cells): above 100 μM

Compound: U9: synthetic oligoribonucleotide with 4SU at position 2 of the QKI recognition element; GUAUGCCA(4sU)AACAAAUUCAUUAACAA (SEQ ID NO: 30) (GUAUGCCAUAACAAAUUCAUUAACAA; RNA, [4sU] at 9, backbone not given here)
crosslinking efficiency to recombinant QKI relative to oligonucleotide U10 (recombinant QKI protein): approximately 50 times | RNA-binding / affinity to recombinant QKI by gel-shift analysis [1]: unaffected

crosslinking efficiency of nucleoside-labeled RNA to IGF2BP1 [2]: crosslinked most efficiently
Compound: O=c1[nH]c(=S)ccn1[C@@H]1O[C@H](CO)[C@@H](O)[C@H]1O [4SU, 4-thiouridine]

Compound: miR-7: transfected miRNA duplex, 5'-UGGAAGACUAGUGAUUUUGUUGU / 5'-CAACAAAUCACAGUCUGCCAUA (SEQ ID NO: 66, 67) (listed as RNA, chemistry not given here)
change in mRNA stability of CCR-containing transcripts after miRNA duplex transfection [3]: destabilized
